As a reminder, the Kd is the constant that tells how readily two partners part at equilibrium. A word on the IC50: it is the concentration that inhibits the measured activity by half. Read a high IC50 as weaker potency.

Values joined by “and” are separate entries in the source; they are usually repeats but may differ in a detail not shown here. Identical values can stand only once.

Two compounds from paper PMC10874388, “Cyclic peptides discriminate BCL-2 and its clinical mutants from BCL-XL by engaging a single-residue discrepancy” (Nature Communications, 2024) can be followed below.

Test [1] has as its target BCL-2 (chimeric human BCL-2). The test is described as follows: SPR binding assay, BCL-2. The settings on record: affinity fitting, mean ± SD of three independent experiments, 25 °C. An excerpt: (§1) The DNA fragments encoding human BCL-XL ([…], with […] removed), BCL-w (residues 6–152), MCL-1 (residues 152–308) and BFL-1 (residues 1–151) as previously reported[18] were cloned into a pET-22b vector (Invitrogen), respectively. A chimeric human BCL-2 (including residues 1–50 and 92–207) was constructed, by removing the internal long loop (residues 51–91) and replacing its residues 35–50 with residues 33–48 of BCL-XL to solubilize the protein[14], and then it was cloned into a pET28a-Sumo vector (Invitrogen). All BCL-2 mutants (G101V, F104L, Y103D, D111A) were generated by mutagenic PCR, according to the QuikChange (Stratagene) protocol.
(§2) SPR assays were performed using a Biacore T200 instrument in running buffer consisting 10 mM PBS, 50 μM EDTA and 0.05% Tween-20 at 25 °C. Biotinylated proteins were immobilized on a CAP sensor chip (Cytiva, 28920234). […] The binding affinities were quantified by the Biacore evaluation software using 1:1 binding model. The reproducibility of the assays was confirmed by performing replicate determinations.
For orientation: SPR reads the build-up and loss of mass on a sensor chip optically.

The target of another test is T1, BCL-XL (Homo sapiens, UniProt Q07817, DEL27-81).
T1 construct: human BCL-XL (residues 1–210, with 27–81 and 210–233 removed); vector-borne tag of pET-22b (Ni-NTA purification implies a His tag); made in house; host or cells: E. coli BL21 (DE3)
T1 sequence (Q07817 with tags, fused parts or gaps DEL27-81): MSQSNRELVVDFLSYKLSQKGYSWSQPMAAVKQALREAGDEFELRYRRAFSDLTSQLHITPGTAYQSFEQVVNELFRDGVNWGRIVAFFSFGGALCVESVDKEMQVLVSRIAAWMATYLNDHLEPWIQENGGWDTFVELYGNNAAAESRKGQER
The experiment in a line: SPR binding assay, BCL-XL. The settings on record: affinity fitting, mean ± SD of three independent experiments, 25 °C.
Excerpt: as §1, §2

A further test relates to El4 cells. The test is described as follows: Cell viability assay (CellTiter-Glo), El4. It is filed as cell-based. The note with it: Mus musculus, 48 h treatment, NO = no inhibition detected. How it is done:
(§3) The cell lines Jurkat (TIB-152), El4 (TIB-39), Daudi (ccl-213), RS4:11 (crl-1873), A549 (ccl-185), HepG2 (hb-8065) and PANC-1 (crl-1469) were purchased from ATCC (American Type Culture Collection), and MGC-803 (C6582) was purchased from Beyotime (https://www.beyotime.com/product/C6582.htm). […] Daudi and RS4:11 cells were cultured in RPMI-1640 medium (HyClone, SH30809.01) and 10% FBS (Gibco, 10099-141), whereas HepG2, MGC-803 and PANC-1 cells were cultured in MDEM (HyClone, SH30243.01). Cells were maintained at 37 °C under a humidified, 5% (v/v) CO2-containing atmosphere.
(§4) Cell viability was measured using CellTiter-Glo® 2.0 Reagent (Promega, G9242). […] After different inhibitors were added into serum-free medium and cultured for 4 h (RS4:11 for 6 h), FBS were supplemented to 10% and then incubated totally for 24 h or 48 h. Finally, the IC50 values were calculated based on measurements using a microplate reader (Thermo, Varioskan LUX). Statistical analysis was performed using software GraphPad Prism 7.0.
In general terms: ATP-based viability assays read luminescence as a measure of living cells.

A further test concerns Jurkat cells. The test is described as follows: Mitochondrial membrane potential (JC-1), flow cytometry and fluorescence microscopy. It is filed as cell-based. The note with it: Jurkat. The method, then:
For the mitochondrial membrane potential (ΔΨm) analysis, the mitochondrial membrane potential assay kit with JC-1 dye (Beyotime, C2006) was used according to the manufacturer’s protocol. […] The value of ΔΨm was expressed as the ratio of red fluorescence intensity over green fluorescence intensity. After treated with JC-1, fluorescence intensity of Jurkat cells was tested by flow cytometry (BD FACSAria Fusion) and fluorescence microscopy (NIKON Ti-E), respectively. All experiments were performed in triplicate. Statistical analysis was performed using software GraphPad Prism 7.0.
In general terms: In flow cytometry, cells or beads pass a laser one at a time.

A further test deals with MGC-803 cells. The test is described as follows: Cell viability assay (CellTiter-Glo), MGC-803. Type of test: cell-based. The settings on record: for inhibition rate: fraction; for inhibition rate / raw viability reading: replicates. How it is done:
as §3, §4
(§5) Supplementary Figure 10 Functional mechanism of CPs. a. IC50 values of venetoclax against A549, MGC-803 and PANC-1 cells, measured after 48 h treatment by a CellTiter-Glo assay and calculated using Prism 7.0 by a nonlinear-fit method. Data are presented as mean ± s.d.; n= 6 biological replicates. b. […]
(§6) Glo assay. Each data point represents the mean ± s.d. for 6 biological replicates.
(§7) Supplementary Figure 11 IC50 values of different inhibitors against different cell lines. a-d. Viability of A549 (a), HepG2 (b), MGC-803 (c) and PANC-1 (d) cells treated with various concentrations of ABT-199 (venetoclax), and measured after 48 h by a CellTiter-Glo assay. e, f. Viability of Jurkat cells (e) and Daudi cells (f) treated with […]
(§8) after 48 h by a CellTiter-Glo assay. Each data point represents the mean ± s.d. for 6 biological replicates.
(§9) (1 picture or pasted object on this page, not shown here)

For the next test, the system named is PANC-1 cells. The test is described as follows: Cell viability assay (CellTiter-Glo), PANC-1. The note with it: PNAC-1; for inhibition rate: fraction; for inhibition rate / raw viability reading: replicates. It is filed as cell-based. How it is done: as §3, §4, §5, §6, §7, §8, §9

On to `O=C(c1cc(-c2cc3c(cc2C(=O)N2Cc4ccccc4C[C@H]2CN2CCOCC2)OCO3)n2c1CCCC2)N(c1ccccc1)c1ccc(O)cc1` [S55746], for which the Kd worked out at 6 ± 2 nM in test [1] and 175 ± 42 nM at BCL-XL.
In turn, `CC1(C)CCC(CN2CCN(c3ccc(C(=O)NS(=O)(=O)c4ccc(NCC5CCOCC5)c([N+](=O)[O-])c4)c(Oc4cnc5[nH]ccc5c4)c3)CC2)=C(c2ccc(Cl)cc2)C1` [venetoclax] came in with an IC50 with El4 cells of 1700 ± 200 nM. For the same compound, in the test on Jurkat cells (4 h treatment, JC-1, flow cytometry, n = 3), the “ΔΨm (ratio of red over green fluorescence, Q1/Q3)” value turned out to be 0.1. The “Relative ΔΨm by JC-1 fluorescence staining (microscopy)” value in the test with Jurkat cells (24 h treatment (Supplementary Fig. 13)) is recorded as “red fluorescence almost disappeared”. Also, the “average (raw viability reading)” value in the test on MGC-803 cells (ABT199 0.3125 uM) is listed as 557867; with MGC-803 cells (ABT199 0.625 uM), 500400; in the test on MGC-803 cells (ABT199 1.25 uM), 506350; in the test on MGC-803 cells (ABT199 2.5 uM), 356233; with MGC-803 cells (ABT199 5 uM) it was 295000; with MGC-803 cells (ABT199 10 uM), 171300. The “average (raw viability reading)” value is recorded as 77771.7 in the test with MGC-803 cells (ABT199 20 uM); 745567 in the test with PANC-1 cells (ABT199 0.625 uM); 742283 in the test with PANC-1 cells (ABT199 1.25 uM); 777083 in the test with PANC-1 cells (ABT199 2.5 uM); 562150 with PANC-1 cells (ABT199 5 uM); 446683 in the test on PANC-1 cells (ABT199 10 uM). The “average (raw viability reading)” value in the test with PANC-1 cells (ABT199 20 uM) is reported as 384133. Also, the inhibition rate with MGC-803 cells (ABT199 0.3125 uM) is 0.2027 and 0.1767 and 0.1757 and 0.1522 and 0.1169 and 0.1408; in the test on MGC-803 cells (ABT199 0.625 uM), 0.2793 and 0.2709 and 0.2616 and 0.2533 and 0.2176 and 0.2009; with MGC-803 cells (ABT199 1.25 uM) it was 0.2765 and 0.2507 and 0.2473 and 0.2351 and 0.2002 and 0.2202; with MGC-803 cells (ABT199 2.5 uM), 0.4666 and 0.4612 and 0.464 and 0.4702 and 0.4562; in the test on MGC-803 cells (ABT199 5 uM), 0.6033 and 0.5602 and 0.5626 and 0.5469 and 0.5313 and 0.5332; in the test on MGC-803 cells (ABT199 10 uM) it was 0.7623 and 0.7504 and 0.748 and 0.7419 and 0.7262 and 0.725. The inhibition rate in the test with MGC-803 cells (ABT199 20 uM) is 0.8931 and 0.8865 and 0.8872 and 0.8828 and 0.8769 and 0.8715; with PANC-1 cells (ABT199 0.625 uM), -0.00675 and 0.06232 and 0.04686 and 0.01357 and 0.002949; in the test with PANC-1 cells (ABT199 1.25 uM), 0.02549 and 0.03519 and 0.03296 and 0.02484 and -0.003211 and 0.04725; in the test with PANC-1 cells (ABT199 2.5 uM) it was -0.04175 and 0.01278 and 0.00793 and -0.01999 and -0.04882 and -0.0213; in the test with PANC-1 cells (ABT199 5 uM), 0.3097 and 0.2596 and 0.2661 and 0.2453 and 0.2389; in the test with PANC-1 cells (ABT199 10 uM), 0.4023 and 0.4323 and 0.4298 and 0.4149 and 0.4042 and 0.4036. Also, the inhibition rate with PANC-1 cells (ABT199 20 uM) was 0.5271 and 0.5025 and 0.4945 and 0.4865 and 0.4715 and 0.4971. The raw viability reading was 548000 and 563600 and 587100 and 571200 and 530000 and 547300 in the test on MGC-803 cells (ABT199 0.3125 uM); 490900 and 496400 and 520100 and 531200 and 479100 and 484700 in the test on MGC-803 cells (ABT199 0.625 uM); 500400 and 508500 and 531700 and 518400 and 481000 and 498100 in the test on MGC-803 cells (ABT199 1.25 uM); 356300 and 352200 and 361500 and 354600 and 358200 in the test on MGC-803 cells (ABT199 2.5 uM); 290800 and 301200 and 311600 and 310300 and 263700 and 292400 in the test with MGC-803 cells (ABT199 5 uM); 167500 and 171600 and 182000 and 182800 and 158000 and 165900 in the test with MGC-803 cells (ABT199 10 uM). The raw viability reading in the test with MGC-803 cells (ABT199 20 uM) is 75000 and 77910 and 81820 and 85400 and 71050 and 75450; in the test on PANC-1 cells (ABT199 0.625 uM) it was 768100 and 715400 and 727200 and 752600 and 760700 and 749400; with PANC-1 cells (ABT199 1.25 uM) it was 743500 and 736100 and 737800 and 744000 and 765400 and 726900; in the test on PANC-1 cells (ABT199 2.5 uM), 794800 and 753200 and 756900 and 778200 and 800200 and 779200; with PANC-1 cells (ABT199 5 uM), 526700 and 564900 and 559900 and 575800 and 580700; in the test with PANC-1 cells (ABT199 10 uM) it was 456000 and 433100 and 435000 and 446400 and 454600 and 455000. For the same compound, the raw viability reading with PANC-1 cells (ABT199 20 uM) is 360800 and 379600 and 385700 and 391800 and 403200 and 383700.
